The text below walks through data of patent US20240336606A1 (Suzhou Zelgen Biopharmaceuticals Co., Ltd., priority 2020, published 2024).

The target in assay [1] is T1, binding of KRAS^G12C to SOS1 (Homo sapiens, UniProt Q07889).
T1 construct: Tag1 (unspecified)
T1 sequence (Q07889 1-1333): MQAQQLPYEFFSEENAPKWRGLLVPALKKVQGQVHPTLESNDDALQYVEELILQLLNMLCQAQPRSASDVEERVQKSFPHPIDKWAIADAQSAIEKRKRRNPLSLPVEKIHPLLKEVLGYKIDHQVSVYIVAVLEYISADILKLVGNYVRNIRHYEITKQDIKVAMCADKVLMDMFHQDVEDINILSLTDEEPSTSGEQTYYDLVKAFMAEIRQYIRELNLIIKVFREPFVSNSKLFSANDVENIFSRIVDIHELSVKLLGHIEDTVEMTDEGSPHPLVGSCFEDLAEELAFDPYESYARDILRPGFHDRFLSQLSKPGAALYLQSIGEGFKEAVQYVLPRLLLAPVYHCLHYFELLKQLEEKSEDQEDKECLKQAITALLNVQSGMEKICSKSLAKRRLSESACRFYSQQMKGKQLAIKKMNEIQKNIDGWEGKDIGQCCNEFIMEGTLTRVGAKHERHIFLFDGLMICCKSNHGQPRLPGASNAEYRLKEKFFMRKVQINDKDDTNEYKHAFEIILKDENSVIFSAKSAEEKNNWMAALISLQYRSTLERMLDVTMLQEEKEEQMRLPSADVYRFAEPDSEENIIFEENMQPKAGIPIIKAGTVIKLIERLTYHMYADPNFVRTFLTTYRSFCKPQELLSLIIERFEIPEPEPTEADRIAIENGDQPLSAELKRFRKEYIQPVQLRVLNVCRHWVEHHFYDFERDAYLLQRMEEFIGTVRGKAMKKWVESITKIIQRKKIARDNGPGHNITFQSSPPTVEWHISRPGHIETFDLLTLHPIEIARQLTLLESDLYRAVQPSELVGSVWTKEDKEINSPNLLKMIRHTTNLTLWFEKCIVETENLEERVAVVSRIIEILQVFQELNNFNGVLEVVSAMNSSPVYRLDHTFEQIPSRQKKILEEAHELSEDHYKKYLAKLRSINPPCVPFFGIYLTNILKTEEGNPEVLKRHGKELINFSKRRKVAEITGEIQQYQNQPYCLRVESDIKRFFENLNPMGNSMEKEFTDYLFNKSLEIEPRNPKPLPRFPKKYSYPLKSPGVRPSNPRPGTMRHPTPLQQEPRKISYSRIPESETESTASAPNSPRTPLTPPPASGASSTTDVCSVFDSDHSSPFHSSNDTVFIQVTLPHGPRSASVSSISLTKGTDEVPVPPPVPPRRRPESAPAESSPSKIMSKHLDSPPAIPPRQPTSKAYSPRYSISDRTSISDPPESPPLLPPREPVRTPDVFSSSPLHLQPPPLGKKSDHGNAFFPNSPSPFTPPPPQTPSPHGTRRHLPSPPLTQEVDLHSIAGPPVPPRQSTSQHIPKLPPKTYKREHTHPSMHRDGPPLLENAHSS
Description: Inhibition of the binding of KRAS^G12C to SOS1. The following applies: Tag1-SOS1 / Tag2-KRAS^G12C, 2 h incubation at room temperature; read-out: IC50 (nM), inhibitory activity on the binding of KRAS^G12C to SOS1. The method, boiled down: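 Tag1-SOS1 and Tag2-KRAS^G12C mixed with serially diluted compound (final 0.25% DMSO), then anti-Tag1-Tb3+ and anti-Tag2-XL665 added for 2 h at room temperature. IC50 from curve fit of the TR-FRET signal.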

The subject of assay [2] is H358 cells. Description: Inhibition of H358 cell proliferation (CellTiter-Glo 3D, 7 days). Format: cell-based. The following applies: Homo sapiens, 168 h, NCI-H358, 7 days, read-out: IC50 (nM), inhibitory activity on H358 cell proliferation. As for the experimental part: • (a) The cells were thawed in T75 cell culture flasks:
• (b) When 80-90% cell confluence was achieved, the cells were passaged.
The diluted test compounds were added to a 384-well cell culture plate using a nanoliter pipetting system, and duplicate wells were set. An equal volume of medium was added to the positive control group; an equal volume of DMSO was added to the negative control group. The plate was centrifuged at 1000 rpm at room temperature for 1 min.
The cells were inoculated into a) 384-well culture plate, an equal volume of cells was added to the negative control group, and only an equal volume of medium was added to the positive control group. The plate was centrifuged at 1000 rpm at room temperature for 1 min. The final concentration of DMSO in the final compounds was 0.5%. The plate was incubated in a thermostatic incubator at 37° C. with 5% CO2 for 7 days.
CellTiter-Glo® 3D was added to b) 384-well cell culture plate at 20 μL/well. The plate was shaken at 320 rpm in the dark for 20 min, and incubated at room temperature in the dark for 2 h. The luminescence values were read using an Envision multi-mode microplate reader.
The inhibition rates of the compounds at different concentrations were calculated in Excel, and then inhibition curves were plotted and relevant parameters including minimum inhibition rate, maximum inhibition rate and IC50 were calculated using GraphPad Prism software.

The test system of assay [3] is MIA PaCa-2 tumor cells. The assay is described as follows: Anti-tumor pharmacodynamic evaluation, MIA PaCa-2 subcutaneous xenograft. Format: in vivo. The following applies: MIA PaCa-2 in nude mice. How it is done: 100 μL of a suspension containing 5×10^6 MIA PaCa-2 tumor cells was subcutaneously inoculated into the right posterior abdomens of nude mice. The health of the mice was monitored daily, and measurements were started when tumors grew to be palpable. The tumor volume was calculated as follows: 0.5×L×W^2, where L and W represent the length and width of the tumor, respectively. When the tumors grew to about 100 mm^3, the mice were randomized into groups. The mice were intragastrically administered a corresponding dose (50 mg/kg) of compound suspension in CMC-Na twice daily, and their general states were monitored at the same time. The tumors were measured 3 times a week, and the body weight was measured twice a week.

The mark [4] stands for this setting: Day 21, 50 mg/kg intragastric twice daily.

As for `COc1cc2nc(C)nc(N[C@H](C)c3cc(N)cc(C(F)(F)F)c3)c2cc1OCCOC1COC1` [Example 44, (R)—N-(1-(3-Amino-5-(trifluoromethyl)phenyl)ethyl)-7-methoxy-2-methyl-6-(2-(oxetan-3-yloxy)ethoxy)quinazolin-4-amine], the IC50 in assay [1] was found to be 4.4 nM; in assay [2], 25 nM.
Consider `COCCOc1cc2c(N[C@H](C)c3cccc(C(F)(F)C(C)(C)O)c3F)nc(C)nc2cc1OC` [Example 72, (R)-1,1-Difluoro-1-(2-fluoro-3-(1-((7-methoxy-6-(2-methoxyethoxy)-2-methylquinazolin-4-yl)amino)ethyl)phenyl)-2-methylpropan-2-ol], for which the figures for the IC50 in assay [1] and in assay [2] were 3.2 nM and 16.6 nM, respectively. In assay [3] (Day 0 (at grouping), 50 mg/kg intragastric twice daily), the “TV (mm^3) (tumor volume) Day 0” value came out at 103 mm^3. In addition, the “% TGI (tumor growth inhibition)” value in assay [3] (setting [4]) is 84.9%. Moreover, the “TV (mm^3) (tumor volume) Day 21” value in assay [3] (setting [4]) was found to be 175 mm^3.
Consider `COCCOc1cc2c(N[C@H](C)c3cc(N)cc(C(F)(F)C(C)(C)O)c3)nc(C)nc2cc1OC` [Example 74], for which the IC50 in assay [1] stood at 3.1 nM; in assay [2], 6.5 nM.
The matching figures for `COCCOc1cc2c(N[C@H](C)c3cc(C(F)(F)C(C)(C)O)ccc3F)nc(C)nc2cc1OC` [Example 79, (R)-1,1-Difluoro-1-(4-fluoro-3-(1-((7-methoxy-6-(2-methoxyethoxy)-2-methylquinazolin-4-yl)amino)ethyl)phenyl)-2-methylpropan-2-ol]: 19 nM and 419 nM.
The corresponding values for `COCCOc1cc2c(N[C@H](C)c3cc(F)cc(C(F)(F)C(C)(C)O)c3)nc(C)nc2cc1OC` [Example 80, (R)-1,1-Difluoro-1-(3-fluoro-5-(1-((7-methoxy-6-(2-methoxyethoxy)-2-methylquinazolin-4-yl)amino)ethyl)phenyl)-2-methylpropan-2-ol] are 6.2 nM and 53 nM.
The matching figures for `COc1cc2nc(C)nc(N[C@H](C)c3cc(N)cc(C(F)(F)F)c3)c2cc1OCCOC1CC1(F)F` (stereo partly drawn) [Example 82, N—((R)-1-(3-Amino-5-(trifluoromethyl)phenyl)ethyl)-6-(2-(2,2-difluorocyclopropyloxy)ethoxy)-7-methoxy-2-methylquinazolin-4-amine]: 4.5 nM and 33 nM.
`COCCOc1cc2c(N[C@H](C)c3cc(N)cc(OC(F)(F)F)c3)nc(C)nc2cc1OC` [Example 83, (R)—N-(1-(3-Amino-5-(trifluoromethoxy)phenyl)ethyl)-7-methoxy-6-(2-methoxyethoxy)-2-methylquinazolin-4-amine]: the IC50 in assay [1] turned out to be 15 nM; in assay [2] it was 187 nM.
As to `COCCOc1cc2c(N[C@H](C)c3cccc(C(F)(F)CO)c3)nc(C)nc2cc1OC` [Example 85], the IC50 in assay [1] came out at 4.1 nM; in assay [2], 39 nM.
For `COCCOc1cc2nc(C)nc(N[C@H](C)c3cccc(C(F)(F)C(C)(C)O)c3F)c2cc1OCCOC` [Example 86, (R)-1-(3-(1-((6,7-Bis(2-methoxyethoxy)-2-methylquinazolin-4-yl)amino)ethyl)-2-fluorophenyl)-1,1-difluoro-2-methylpropan-2-ol], the IC50 in assay [1] is 4.4 nM; in assay [2], 11.8 nM.
With `COCCOc1cc2c(N[C@H](C)c3cccc(C(F)(F)C(C)(C)O)c3F)nc(C)nc2cc1C#N` [Example 89, (R)-4-((1-(3-(1,1-Difluoro-2-hydroxy-2-methylpropyl)-2-fluorophenyl)ethyl)amino)-6-(2-methoxyethoxy)-2-methylquinazoline-7-carbonitrile], the IC50 in assay [1] stood at 6.7 nM; in assay [2], 130 nM.
